Our source for the IC50 values is the Kinase Knowledgebase extract (Sharma et al. 2016).

Some targets named below: PIK3CB (Human) (UniProt P42338); PIK3CA (human) (UniProt P42336); PIK3CD (Human) (UniProt O00329).
Assay in all cases: Enzyme Assay

The term IC50 denotes the midpoint of a concentration-inhibition curve.

Molecules are shown by their SMILES.

Sequence of PIK3CA (human) (P42336 whole entry, looked up): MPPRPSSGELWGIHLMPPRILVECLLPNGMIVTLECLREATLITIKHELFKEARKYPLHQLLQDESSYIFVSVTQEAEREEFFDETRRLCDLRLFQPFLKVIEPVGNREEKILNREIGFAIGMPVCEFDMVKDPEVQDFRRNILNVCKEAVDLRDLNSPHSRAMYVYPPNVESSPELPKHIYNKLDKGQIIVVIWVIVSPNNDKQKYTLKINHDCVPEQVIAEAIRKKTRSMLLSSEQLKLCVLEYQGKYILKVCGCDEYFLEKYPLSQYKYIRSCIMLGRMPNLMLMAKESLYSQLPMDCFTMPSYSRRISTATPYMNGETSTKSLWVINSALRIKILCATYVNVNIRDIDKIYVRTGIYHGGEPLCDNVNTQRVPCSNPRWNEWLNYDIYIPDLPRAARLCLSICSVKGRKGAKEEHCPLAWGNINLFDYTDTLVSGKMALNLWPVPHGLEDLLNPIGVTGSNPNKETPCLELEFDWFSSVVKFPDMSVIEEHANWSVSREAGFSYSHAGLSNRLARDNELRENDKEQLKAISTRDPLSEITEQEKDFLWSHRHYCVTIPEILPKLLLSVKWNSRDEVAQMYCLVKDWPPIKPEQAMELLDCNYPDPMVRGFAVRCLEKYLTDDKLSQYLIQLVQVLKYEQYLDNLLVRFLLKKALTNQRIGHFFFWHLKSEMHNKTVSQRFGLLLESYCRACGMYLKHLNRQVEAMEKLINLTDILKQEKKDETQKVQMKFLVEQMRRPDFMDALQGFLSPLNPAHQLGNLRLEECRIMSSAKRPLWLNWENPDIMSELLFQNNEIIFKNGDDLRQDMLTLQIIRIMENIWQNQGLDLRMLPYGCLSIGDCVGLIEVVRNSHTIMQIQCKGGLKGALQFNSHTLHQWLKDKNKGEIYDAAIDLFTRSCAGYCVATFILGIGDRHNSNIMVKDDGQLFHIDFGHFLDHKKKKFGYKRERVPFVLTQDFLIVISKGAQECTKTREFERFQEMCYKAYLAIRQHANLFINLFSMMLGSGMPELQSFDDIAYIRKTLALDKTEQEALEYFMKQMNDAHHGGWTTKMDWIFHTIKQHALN
Sequence of PIK3CB (Human) (P42338 whole entry, looked up): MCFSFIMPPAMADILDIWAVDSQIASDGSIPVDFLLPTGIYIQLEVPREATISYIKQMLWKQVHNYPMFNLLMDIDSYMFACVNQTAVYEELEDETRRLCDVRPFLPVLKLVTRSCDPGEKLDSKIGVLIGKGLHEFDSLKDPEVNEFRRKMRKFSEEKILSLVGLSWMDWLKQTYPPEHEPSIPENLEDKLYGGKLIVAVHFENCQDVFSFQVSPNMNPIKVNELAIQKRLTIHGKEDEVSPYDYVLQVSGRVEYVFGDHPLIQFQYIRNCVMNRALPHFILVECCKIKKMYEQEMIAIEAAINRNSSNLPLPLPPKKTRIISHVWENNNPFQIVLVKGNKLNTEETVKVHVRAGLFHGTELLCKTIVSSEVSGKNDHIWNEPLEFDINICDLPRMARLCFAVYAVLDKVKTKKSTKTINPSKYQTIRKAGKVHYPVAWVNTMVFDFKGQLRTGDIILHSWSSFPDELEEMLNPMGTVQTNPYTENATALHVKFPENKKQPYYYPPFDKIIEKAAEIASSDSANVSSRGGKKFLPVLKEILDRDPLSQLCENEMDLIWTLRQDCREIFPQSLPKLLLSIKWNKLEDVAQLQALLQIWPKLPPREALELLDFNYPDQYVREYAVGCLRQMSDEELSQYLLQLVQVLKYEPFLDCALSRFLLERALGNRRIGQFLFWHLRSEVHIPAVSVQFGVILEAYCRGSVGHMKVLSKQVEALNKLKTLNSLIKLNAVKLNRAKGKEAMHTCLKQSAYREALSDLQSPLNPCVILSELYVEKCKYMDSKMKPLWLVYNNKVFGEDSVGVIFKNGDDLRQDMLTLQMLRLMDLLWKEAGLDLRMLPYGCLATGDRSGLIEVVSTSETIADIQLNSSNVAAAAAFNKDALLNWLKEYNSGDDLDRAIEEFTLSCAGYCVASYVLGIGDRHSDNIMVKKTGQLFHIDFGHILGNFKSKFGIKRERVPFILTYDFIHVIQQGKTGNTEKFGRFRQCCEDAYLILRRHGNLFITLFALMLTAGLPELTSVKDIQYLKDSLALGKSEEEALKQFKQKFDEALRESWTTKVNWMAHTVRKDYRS
Sequence of PIK3CD (Human) (O00329 whole entry, looked up): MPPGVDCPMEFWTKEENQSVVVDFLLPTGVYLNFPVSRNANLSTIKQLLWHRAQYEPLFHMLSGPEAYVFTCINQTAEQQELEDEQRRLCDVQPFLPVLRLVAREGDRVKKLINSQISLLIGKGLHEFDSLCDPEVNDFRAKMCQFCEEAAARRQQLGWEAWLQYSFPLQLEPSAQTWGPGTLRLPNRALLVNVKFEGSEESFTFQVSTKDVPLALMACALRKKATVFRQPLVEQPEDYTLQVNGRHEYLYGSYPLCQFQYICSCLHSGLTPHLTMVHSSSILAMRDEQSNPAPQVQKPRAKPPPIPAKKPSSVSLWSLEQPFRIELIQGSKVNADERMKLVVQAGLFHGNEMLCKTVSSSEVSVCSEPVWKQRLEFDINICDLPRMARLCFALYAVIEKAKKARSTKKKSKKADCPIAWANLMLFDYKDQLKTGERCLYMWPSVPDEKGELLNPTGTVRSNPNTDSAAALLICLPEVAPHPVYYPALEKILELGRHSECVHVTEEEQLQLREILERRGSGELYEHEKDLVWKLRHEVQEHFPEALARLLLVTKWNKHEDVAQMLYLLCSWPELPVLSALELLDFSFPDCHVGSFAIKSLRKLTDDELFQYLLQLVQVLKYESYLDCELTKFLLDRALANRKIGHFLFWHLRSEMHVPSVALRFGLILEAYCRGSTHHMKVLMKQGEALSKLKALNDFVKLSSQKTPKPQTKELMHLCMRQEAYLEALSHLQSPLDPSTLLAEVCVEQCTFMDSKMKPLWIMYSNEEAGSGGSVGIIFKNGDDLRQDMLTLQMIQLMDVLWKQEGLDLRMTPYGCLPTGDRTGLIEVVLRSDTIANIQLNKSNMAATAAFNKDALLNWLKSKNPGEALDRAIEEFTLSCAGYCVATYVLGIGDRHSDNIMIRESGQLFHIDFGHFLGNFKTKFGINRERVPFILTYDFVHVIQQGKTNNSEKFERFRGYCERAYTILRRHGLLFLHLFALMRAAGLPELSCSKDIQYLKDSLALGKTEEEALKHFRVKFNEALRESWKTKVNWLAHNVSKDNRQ

For `CCn1c(Cn2nc(-c3ccc4nc(NC(C)=O)sc4c3)c3c(N)ncnc32)cc2cccc(C)c2c1=O`, the IC50 at PIK3CB (Human) lay within 0.1 to 1 µM.

On to `CC(=O)Nc1nc2ccc(-c3nn(Cc4cc5cccc(C)c5c(=O)n4-c4ccccc4)c4ncnc(N)c34)cc2[nH]1`, for which the IC50 against PIK3CA (human) and against PIK3CB (Human) was > 10 µM each time.

Regarding `Cc1ccccc1-n1c(Cn2nc(CC#N)c3c(N)ncnc32)cc2cccc(C)c2c1=O`, the results for the IC50 on PIK3CB (Human) and on PIK3CD (Human) were > 10 µM and < 0.1 µM, respectively.

With `CCN(Cc1cc2cccc(C)c2c(=O)n1-c1ccccc1C)c1ncnc2[nH]cnc12`, the IC50 on PIK3CA (human) and against PIK3CB (Human) was > 10 µM throughout.

The compound `Cc1cccc2cc(Cn3nc(-c4cc(O)cc(F)c4)c4c(N)ncnc43)n(-c3ccccc3O)c(=O)c12` displayed an IC50 at PIK3CB (Human) of 0.1 to 1 µM.

Turning to `Cc1cccc2cc(Cn3nc(C#C[C@@H](C)O)c4c(N)ncnc43)n(-c3ccccc3O)c(=O)c12`, the IC50 against PIK3CA (human) and at PIK3CB (Human) was > 10 µM throughout.

With `Cc1ccccc1-n1c(Cn2nc(-c3ccc(Cl)c(O)c3)c3c(N)ncnc32)cc2ccccc2c1=O`, the IC50 on PIK3CA (human) and on PIK3CB (Human) was > 10 µM each time.

In turn, `CCc1ccccc1-n1c(Cn2nc(-c3cc(O)cc(F)c3)c3c(N)ncnc32)cc2cccc(C)c2c1=O` yielded an IC50 against PIK3CB (Human) of 0.1 to 1 µM.

With `Cc1cccnc1-n1c(Cn2nc(-c3ccc(F)c(O)c3)c3c(N)ncnc32)cc2cccc(C)c2c1=O`, the IC50 against PIK3CA (human) and against PIK3CB (Human) was > 10 µM in each case.

For `Cc1cccc2cc(Cn3nc(-c4cccc(O)c4)c4c(N)ncnc43)n(-c3ccccc3C(C)C)c(=O)c12`, the IC50 at PIK3CA (human) was > 10 µM; on PIK3CB (Human), 0.1 to 1 µM.

With `Cc1cccc2cc(Cn3nc(-c4ccc(Cl)c(O)c4)c4c(N)ncnc43)n(-c3ccccc3F)c(=O)c12`, the IC50 against PIK3CA (human) and against PIK3CB (Human) was > 10 µM in each case.

As for `Cc1cccc2cc(Cn3nc(C#N)c4c(N)ncnc43)n(-c3ccccc3F)c(=O)c12`, the IC50 at PIK3CA (human) and against PIK3CB (Human) was > 10 µM throughout.

Regarding `Cc1cccc2cc(Cn3nc(-c4cnn(C)c4)c4c(N)ncnc43)n(-c3ccccc3F)c(=O)c12`, the IC50 at PIK3CA (human) and against PIK3CB (Human) was > 10 µM throughout.

For the compound `CC(=O)Nc1nc2ccc(-c3nn(Cc4cc5cccc(C)c5c(=O)n4C4CCC4)c4ncnc(N)c34)cc2s1`, the IC50 against PIK3CB (Human) lay within 0.1 to 1 µM.

Consider `Cc1cccc2cc(Cn3nc(-c4cc(O)cc(F)c4)c4c(N)ncnc43)n(-c3ccccc3Cl)c(=O)c12`, for which the IC50 against PIK3CB (Human) was 0.1 to 1 µM.

For the compound `Cc1ccccc1-n1c(Cn2nc(-c3ccc4ncnc(N)c4c3)c3c(N)ncnc32)cc2cccc(C)c2c1=O`, the IC50 against PIK3CB (Human) is > 10 µM.

With `Cc1cccc2cc(Cn3nc(I)c4c(N)ncnc43)n(C3CCC3)c(=O)c12`, the IC50 on PIK3CA (human) and against PIK3CB (Human) was > 10 µM throughout.

As for `Cc1ccccc1-n1c(Cn2nc(CN3CCOCC3)c3c(N)ncnc32)cc2cccc(C)c2c1=O`, the IC50 against PIK3CA (human) and against PIK3CB (Human) was > 10 µM throughout.

For the compound `Cc1cccc2cc(Cn3nc(C#C[C@@H](C)O)c4c(N)ncnc43)n(C3CCCCC3)c(=O)c12`, the IC50 on PIK3CA (human) and at PIK3CB (Human) was > 10 µM each time.

For the compound `Cc1cccc2cc(Cn3nc(-c4cccc(F)c4)c4c(N)ncnc43)n(-c3ccccc3F)c(=O)c12`, the IC50 against PIK3CA (human) and at PIK3CB (Human) was > 10 µM throughout.

As to `CCc1ccccc1-n1c(Cn2nc(-c3cccc(O)c3)c3c(N)ncnc32)cc2cccc(C)c2c1=O`, the IC50 on PIK3CA (human) and against PIK3CB (Human) was > 10 µM throughout.

On to `Cc1cccc2cc(Cn3nc(CF)c4c(N)ncnc43)n(-c3ccccc3)c(=O)c12`, for which the IC50 was > 10 µM against PIK3CB (Human) and < 0.1 µM on PIK3CD (Human).

Consider `Cc1ccccc1-n1c(Cn2nc(CCC(=O)N3CCOCC3)c3c(N)ncnc32)cc2cccc(C)c2c1=O`, for which the IC50 at PIK3CA (human) and against PIK3CB (Human) was > 10 µM throughout.

Take `Cc1cccc2cc([C@H](C)Nc3ncnc4[nH]nc(C(N)=O)c34)n(C3CC3)c(=O)c12`: the IC50 on PIK3CB (Human) and against PIK3CD (Human) was < 0.1 µM each time.

In the case of `Cc1ccccc1-n1c(CN(C)c2ncnc3[nH]cnc23)cc2cccc(C)c2c1=O`, the IC50 against PIK3CA (human) and against PIK3CB (Human) was > 10 µM throughout.

Consider `Cc1ccccc1-n1c(Cn2nc(C#N)c3c(N)ncnc32)cc2cccc(C)c2c1=O`, for which the IC50 at PIK3CA (human) and at PIK3CB (Human) was > 10 µM throughout.

Turning to `Cc1cccc2cc([C@H](C)Nc3cc(N)nc(N)n3)n(C3CC3)c(=O)c12`, the IC50 against PIK3CA (human) and against PIK3CB (Human) was > 10 µM each time.

Regarding `Cc1ccccc1-n1c(Cn2nc(C#C[C@@H](C)O)c3c(N)ncnc32)cc2ccccc2c1=O`, the IC50 was > 10 µM against PIK3CA (human) and 0.1 to 1 µM at PIK3CD (Human).

For `Cc1ccccc1-n1c(Cn2nc(-c3ccc4nc(N)ncc4c3)c3c(N)ncnc32)cc2cccc(C)c2c1=O`, the IC50 against PIK3CB (Human) was in the range of 0.1 to 1 µM.

For the compound `Cc1cccc2cc([C@H](C)Nc3ncnc4[nH]ccc34)n(C3CC3)c(=O)c12`, the IC50 on PIK3CB (Human) and against PIK3CD (Human) was < 0.1 µM throughout.

As to `Cc1cccc2cc(Cn3nc(-c4cccc(O)c4)c4c(N)ncnc43)n(-c3ccccc3)c(=O)c12`, the IC50 against PIK3CA (human) and on PIK3CB (Human) was > 10 µM each time.

With `Cc1cccc2cc(Cn3nc(-c4cc(O)cc(F)c4)c4c(N)ncnc43)n(-c3ccccc3C(C)C)c(=O)c12`, the IC50 on PIK3CA (human) and against PIK3CB (Human) was 0.1 to 1 µM each time.

Regarding `Cc1cccc2cc([C@H](C)Nc3ncnc4[nH]cnc34)n(C3CC3)c(=O)c12`, the IC50 against PIK3CB (Human) and on PIK3CD (Human) was < 0.1 µM in each case.

Turning to `Cc1cccc2cc(C(C)Nc3ncnc4[nH]cnc34)n(C3CC3)c(=O)c12` (stereo unspecified), the IC50 is 0.1 to 1 µM against PIK3CB (Human) and < 0.1 µM on PIK3CD (Human).

As to `Cc1cccc2cc(Cn3nc(-c4ccc(F)c(O)c4)c4c(N)ncnc43)n(C3CCCC3)c(=O)c12`, the IC50 at PIK3CA (human) and against PIK3CB (Human) was > 10 µM each time.

With `Cc1cccc2cc(Cn3nc(I)c4c(N)ncnc43)n(-c3ccccc3O)c(=O)c12`, the IC50 at PIK3CA (human) and on PIK3CB (Human) was > 10 µM in each case.

Regarding `Cc1cccc2cc(Cn3nc(I)c4c(N)ncnc43)n(C(C)C)c(=O)c12`, the IC50 on PIK3CA (human) and at PIK3CB (Human) was > 10 µM in each case.

Regarding `Cc1cccc2cc(Cn3nc(-c4cccc(O)c4)c4c(N)ncnc43)n(C(C)C)c(=O)c12`, the IC50 was > 10 µM at PIK3CA (human) and 0.1 to 1 µM against PIK3CB (Human).

Turning to `Cc1ccccc1-n1c(Cn2nc(CO)c3c(N)ncnc32)cc2cccc(C)c2c1=O`, the IC50 against PIK3CA (human) was > 10 µM; on PIK3CD (Human), 0.1 to 1 µM.

For `Cc1cccc2cc([C@H](C)Nc3ncnc4[nH]nc(Cl)c34)n(-c3ccccc3)c(=O)c12`, the IC50 at PIK3CA (human) was > 10 µM; against PIK3CD (Human), < 0.1 µM.

On to `Cc1cccc2cc([C@H](C)Nc3ncnc4[nH]cc(F)c34)n(-c3ccccc3)c(=O)c12`, for which the IC50 on PIK3CB (Human) and at PIK3CD (Human) was < 0.1 µM in each case.

Turning to `Cc1ccccc1-n1c(Cn2nc(C#C[C@@H](C)O)c3c(N)ncnc32)cc2cccc(C)c2c1=O`, the half-inhibitory concentration (IC50) at PIK3CA (human) and on PIK3CB (Human) was > 10 µM throughout.

Regarding `Cc1cccc2cc([C@H](C)Nc3nc(N)ncc3Cl)n(-c3ccccc3)c(=O)c12`, the IC50 against PIK3CA (human) was > 10 µM; at PIK3CD (Human), < 0.1 µM.

With `Cc1ccccc1-n1c(Cn2nc(-c3ccc(F)c(O)c3)c3c(N)ncnc32)cc2ccccc2c1=O`, the IC50 on PIK3CA (human) and at PIK3CB (Human) was > 10 µM in each case.

With `CC(=O)Nc1nc2cc(-c3nn(Cc4cc5cccc(C)c5c(=O)n4-c4ccccc4)c4ncnc(N)c34)ccc2o1`, the IC50 on PIK3CB (Human) and on PIK3CD (Human) was < 0.1 µM in each case.

Turning to `Cc1cccc2cc([C@H](C)Nc3ncnc4[nH]nc(C#N)c34)n(-c3ccccc3)c(=O)c12`, the IC50 at PIK3CB (Human) and against PIK3CD (Human) was < 0.1 µM throughout.

As for `Cc1cccc2cc([C@H](C)Nc3nc(N)ncc3C(F)(F)F)n(-c3ccccc3)c(=O)c12`, the IC50 was > 10 µM against PIK3CA (human) and < 0.1 µM at PIK3CD (Human).

For the compound `Cc1cccc2cc([C@H](C)Nc3ncc(C(F)(F)F)c(N)n3)n(-c3ccccc3)c(=O)c12`, the IC50 at PIK3CA (human) and against PIK3CB (Human) was > 10 µM each time.

`Cc1ccccc1-n1c(Cn2nc(-c3ccc(F)c(O)c3)c3c(N)ncnc32)cc2cccc(F)c2c1=O`: the IC50 against PIK3CA (human) and against PIK3CB (Human) was > 10 µM in each case.

For the compound `CNC(=O)c1nn(Cc2cc3cccc(C)c3c(=O)n2-c2ccccc2)c2ncnc(N)c12`, the IC50 against PIK3CA (human) is > 10 µM; against PIK3CD (Human), 0.1 to 1 µM.

Take `Cc1cccc2cc(Cn3nc(C(C)C)c4c(N)ncnc43)n(-c3ccccc3)c(=O)c12`: the IC50 at PIK3CA (human) and on PIK3CB (Human) was > 10 µM throughout.

`Cc1cccc2cc([C@H](C)Nc3ncnc4[nH]ccc34)n(-c3ccccc3)c(=O)c12`: the IC50 is > 10 µM against PIK3CA (human) and < 0.1 µM on PIK3CD (Human).

Consider `Cc1cccc2cc(C(C)Nc3ncnc4[nH]cnc34)n(-c3ccc(F)cc3)c(=O)c12` (stereo unspecified), for which the IC50 was 0.1 to 1 µM against PIK3CB (Human) and < 0.1 µM against PIK3CD (Human).

As to `Cc1ccccc1-n1c(Cn2nc(C#C[C@H](C)O)c3c(N)ncnc32)cc2cccc(C)c2c1=O`, the IC50 at PIK3CA (human) is > 10 µM; on PIK3CD (Human), 0.1 to 1 µM.

In the case of `Cc1cccc2cc([C@H](C)Nc3ncnc4[nH]ncc34)n(-c3ccccc3)c(=O)c12`, the IC50 against PIK3CA (human) is > 10 µM; against PIK3CD (Human), 0.1 to 1 µM.

Take `CCC(Nc1ncnc2[nH]cnc12)c1cc2cccc(C)c2c(=O)n1-c1ccccc1` (stereo unspecified): the IC50 against PIK3CA (human) was > 10 µM; at PIK3CD (Human), < 0.1 µM.

For `CC(=O)Nc1nc2cc(-c3nn(Cc4cc5cccc(C)c5c(=O)n4-c4ccccc4C)c4ncnc(N)c34)ccc2o1`, the figures for the half-inhibitory concentration (IC50) at PIK3CB (Human) and against PIK3CD (Human) were 0.1 to 1 µM and < 0.1 µM, respectively.

As for `Cc1ccccc1-n1c(Cn2nc(-c3cccc(O)c3)c3c(N)ncnc32)cc2cccc(F)c2c1=O`, the IC50 against PIK3CA (human) and on PIK3CB (Human) was > 10 µM throughout.

Turning to `Cc1cccc2cc(Cn3nc(-c4cccc(O)c4)c4c(N)ncnc43)n(C3CC3)c(=O)c12`, the IC50 against PIK3CA (human) and on PIK3CB (Human) was 0.1 to 1 µM each time.

Regarding `CCC(Nc1ncnc2[nH]cnc12)c1cc2cccc(C)c2c(=O)n1-c1c(F)cccc1F` (stereo unspecified), the IC50 on PIK3CB (Human) is > 10 µM.

Consider `Cc1cccc2cc(Cn3nc(C(C)(C)O)c4c(N)ncnc43)n(-c3ccccc3)c(=O)c12`, for which the IC50 on PIK3CA (human) and at PIK3CD (Human) was > 10 µM in each case.

`CC(=O)Nc1nc2ccc(-c3nn(Cc4cc5cccc(C)c5c(=O)n4C)c4ncnc(N)c34)cc2s1` returned an IC50 at PIK3CB (Human) of 0.1 to 1 µM.

As for `Cc1cccc2cc(Cn3nc(-c4cn[nH]c4)c4c(N)ncnc43)n(-c3ccccc3C(C)C)c(=O)c12`, the half-inhibitory concentration (IC50) against PIK3CB (Human) fell in the range of 0.1 to 1 µM.
